Results as given in patent publication US20060069132A1, “Azolecarboxamide herbicides” (priority 2004, published 2006).

Assays:
[1] = system: Surinam grass; experiment: Test B pre-/postemergence herbicide test; type: in vivo, Urochloa decumbens; settings: for Surinam Grass plant response rating: postemergence, visual rating, scale 0 (no effect) to 100 (complete control)
Summary of the method: (§1)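 Seeds were planted and treated preemergence with compounds formulated in a non-phytotoxic solvent mixture containing surfactant, while plants at the 1- to 4-leaf stage (2 to 18 cm) received postemergence sprays. Flooded paddy plants were grown to the 2-leaf stage. After 13 to 15 days in a greenhouse, injury was visually rated 0–100 against untreated controls.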

[2] = system: velvetleaf; experiment: Test B pre-/postemergence herbicide test; type: in vivo, Abutilon theophrasti; settings: for Velvetleaf plant response rating: postemergence, visual rating, scale 0 (no effect) to 100 (complete control)
Summary of the method: as §1

[3] = system: corn; experiment: Test B pre-/postemergence herbicide test; type: in vivo, Zea mays; settings: for Corn plant response rating: postemergence, visual rating, scale 0 (no effect) to 100 (complete control)
Summary of the method: as §1

[4] = system: pigweed; experiment: Test B pre-/postemergence herbicide test; type: in vivo, Amaranthus retroflexus; settings: for Pigweed plant response rating: postemergence, visual rating, scale 0 (no effect) to 100 (complete control)
Summary of the method: as §1

[5] = system: barnyardgrass; experiment: Test B flooded paddy test; type: in vivo, Echinochloa crus-galli; settings: 1000 g ai/ha, visual rating, scale 0 to 100 (0 no effect, 100 complete control), 13 to 15 days
Summary of the method: (§2)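 Plants grow to 1- to 4-leaf stage (2–18 cm) for postemergence spraying, or to 2-leaf stage for the paddy test. Formulated compound is applied. Greenhouse holding lasts 13–15 days. Response is scored visually relative to controls, 0 no effect to 100 complete control; a dash means no result.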

[6] = system: ducksalad; experiment: Test B flooded paddy test; type: in vivo, Heteranthera limosa; settings: 1000 g ai/ha, visual rating, scale 0 to 100 (0 no effect, 100 complete control), 13 to 15 days
Summary of the method: as §2

[7] = system: blackgrass; experiment: Test B postemergence herbicide test; type: in vivo, Alopecurus myosuroides; settings: postemergence, visual rating, scale 0 (no effect) to 100 (complete control)
Summary of the method: as §2

[8] = system: large crabgrass; experiment: Test B pre-/postemergence herbicide test; type: in vivo, Digitaria sanguinalis; settings: for Crabgrass, Large plant response rating: postemergence, visual rating, scale 0 (no effect) to 100 (complete control)
Summary of the method: as §1

[9] = system: giant foxtail; experiment: Test B pre-/postemergence herbicide test; type: in vivo, Setaria faberi; settings: for Foxtail, Giant plant response rating: postemergence, visual rating, scale 0 (no effect) to 100 (complete control)
Summary of the method: as §1

[10] = system: lambsquarters; experiment: Test B pre-/postemergence herbicide test; type: in vivo, Chenopodium album; settings: for Lambsquarters plant response rating: postemergence, visual rating, scale 0 (no effect) to 100 (complete control)
Summary of the method: as §1

[11] = system: rice; experiment: Test B flooded paddy test; type: in vivo, Oryza sativa; settings: 1000 g ai/ha, visual rating, scale 0 to 100 (0 no effect, 100 complete control), 13 to 15 days
Summary of the method: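 Visual ratings, 0 (no effect) to 100 (complete control), made versus controls after 13–15 d greenhouse. Paddy plants treated at 2-leaf stage; postemergence plants at 1- to 4-leaf stage, 2–18 cm tall.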

[12] = system: small flower umbrella sedge; experiment: Test B flooded paddy test; type: in vivo, Cyperus difformis; settings: 1000 g ai/ha, visual rating, scale 0 to 100 (0 no effect, 100 complete control), 13 to 15 days
Summary of the method: as §2

[13] = system: morningglory; experiment: Test B pre-/postemergence herbicide test; type: in vivo, Ipomoea coccinea; settings: for Morningglory plant response rating: postemergence, visual rating, scale 0 (no effect) to 100 (complete control)
Summary of the method: (§3)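 Species tested were Echinochloa crus-galli, Ipomoea coccinea, Xanthium strumarium and Oryza sativa, treated both before emergence and at the 1- to 4-leaf stage; rice and barnyardgrass were also tested under flooding at 2 leaves. Greenhouse incubation lasted 13–15 days before visual 0–100 scoring.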

[14] = system: barnyardgrass; experiment: Test B pre-/postemergence herbicide test; type: in vivo, Echinochloa crus-galli; settings: for Barnyardgrass plant response rating: postemergence, visual rating, scale 0 (no effect) to 100 (complete control)
Summary of the method: as §3

[15] = system: wild oat; experiment: Test B postemergence herbicide test; type: in vivo, Avena fatua; settings: postemergence, visual rating, scale 0 (no effect) to 100 (complete control)
Summary of the method: (§4)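 Formulated test chemicals went onto postemergence plants measuring 2 to 18 cm, at one to four leaves. For the paddy assay, species had reached two leaves. Scoring took place 13–15 days later by eye, relative to untreated plants, using 0 for no effect up to 100 for full control.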

[16] = system: rice; experiment: Test B pre-/postemergence herbicide test; type: in vivo, Oryza sativa; settings: preemergence
Summary of the method: as §1

[17] = system: cocklebur; experiment: Test B pre-/postemergence herbicide test; type: in vivo, Xanthium strumarium; settings: for Cocklebur plant response rating: postemergence, visual rating, scale 0 (no effect) to 100 (complete control)
Summary of the method: as §3

[18] = system: wheat; experiment: Test B postemergence herbicide test; type: in vivo, Triticum aestivum; parameters: key to Wheat plant response rating: 0 = no effect, 100 = complete control; settings: postemergence, visual rating, scale 0 (no effect) to 100 (complete control)
Summary of the method: as §4

[19] = 125 g ai/ha, 0 = no effect, 100 = complete control, preemergence
[20] = 500 g ai/ha, visual rating 0-100, 0 no effect, 100 complete control, preemergence

CCN(CC)C(=O)c1cccc(NC(=O)c2cn(C(C)(C)C)nc2C)c1 [Compound 184]
Surinam Grass plant response rating (0 to 100 scale) [1, 19]: 0 | Plant response rating, Surinam Grass [1, 20]: 30 | Surinam Grass plant response rating ([1]; 125 g ai/ha): 10 | Surinam Grass plant response rating ([1]; 500 g ai/ha): 20 | Velvetleaf plant response rating (0 to 100 scale) [2, 19]: 10 | Plant response rating, Velvetleaf [2, 20]: 50 | Velvetleaf plant response rating ([2]; 125 g ai/ha): 30 | Velvetleaf plant response rating ([2]; 500 g ai/ha): 60 | Corn plant response rating (0 to 100 scale) [3, 19]: 0 | Plant response rating, Corn [3, 20]: 0 | Corn plant response rating ([3]; 125 g ai/ha): 20 | Corn plant response rating ([3]; 500 g ai/ha): 30 | Pigweed plant response rating (0 to 100 scale) [4, 19]: 100 | Plant response rating, Pigweed [4, 20]: 100 | Pigweed plant response rating ([4]; 125 g ai/ha): 20 | Pigweed plant response rating ([4]; 500 g ai/ha): 60 | Barnyardgrass plant response rating [5]: 0 | Ducksalad plant response rating [6]: 0 | Blackgrass plant response rating ([7]; 125 g ai/ha): 0 | Blackgrass plant response rating ([7]; 500 g ai/ha): 0 | Crabgrass, Large plant response rating (0 to 100 scale) [8, 19]: 30 | Plant response rating, Crabgrass, Large [8, 20]: 100 | Crabgrass, Large plant response rating ([8]; 125 g ai/ha): 20 | Crabgrass, Large plant response rating ([8]; 500 g ai/ha): 30 | Foxtail, Giant plant response rating (0 to 100 scale) [9, 19]: 0 | Plant response rating, Foxtail, Giant [9, 20]: 70 | Foxtail, Giant plant response rating ([9]; 125 g ai/ha): 30 | Foxtail, Giant plant response rating ([9]; 500 g ai/ha): 40 | Lambsquarters plant response rating (0 to 100 scale) [10, 19]: 50 | Plant response rating, Lambsquarters [10, 20]: 80 | Lambsquarters plant response rating ([10]; 125 g ai/ha): 60 | Lambsquarters plant response rating ([10]; 500 g ai/ha): 70 | Rice plant response rating [11]: 0 | Sedge, Umbrella plant response rating [12]: 30 | Morningglory plant response rating (0 to 100 scale) [13, 19]: 10 | Plant response rating, Morningglory [13, 20]: 50 | Morningglory plant response rating ([13]; 125 g ai/ha): 0 | Morningglory plant response rating ([13]; 500 g ai/ha): 60 | Barnyardgrass plant response rating (0 to 100 scale) [14, 19]: 0 | Plant response rating, Barnyardgrass [14, 20]: 60 | Barnyardgrass plant response rating ([14]; 125 g ai/ha): 0 | Barnyardgrass plant response rating ([14]; 500 g ai/ha): 0 | Oat, Wild plant response rating ([15]; 125 g ai/ha): 20 | Oat, Wild plant response rating ([15]; 500 g ai/ha): 30 | Rice plant response rating (0 to 100 scale) ([16]; 125 g ai/ha, 0 = no effect, 100 = complete control): 0 | Plant response rating, Rice ([16]; 500 g ai/ha, visual rating 0-100, 0 no effect, 100 complete control): 0 | Cocklebur plant response rating (0 to 100 scale) [17, 19]: 0 | Plant response rating, Cocklebur [17, 20]: 0 | Cocklebur plant response rating ([17]; 125 g ai/ha): 30 | Cocklebur plant response rating ([17]; 500 g ai/ha): 60 | Wheat plant response rating ([18]; 125 g ai/ha): 0 | Wheat plant response rating ([18]; 500 g ai/ha): 0
